Laboratory results: US20090012005A1, “Use of an angiotensin IV antagonist to treat insulin resistance or cardiovascular risk related to metabolic syndrome” (priority 2007, published 2009)
Entries after “also recorded” stand apart in the source; their conditions may differ. Square brackets hold non-standard residues; d marks the D form. Peptide text beside a SMILES is read from it. * marks the point of attachment. ξ: configuration not given here. β3hF = N[C@H](CC(=O)O)Cc1ccccc1; Ile(3ξ) = CCC(C)[C@H](N)C(=O)O; X1 = CC(C)C(CN)C(=O)*

Key:
[1] = system: angiotensinogen (AGT) and AT1 receptor (AT1R) expression in human vascular smooth muscle cells; experiment: expression of angiotensinogen and AT1 receptors (mRNA) in primary human vascular smooth muscle cell cultures; type: cell-based; settings: for inhibition of the angiotensinogen (and AT1 receptor) response to angiotensin IV: 100 nM angiotensin IV, antagonist at increasing concentrations, given 30 minutes before angiotensin IV (FIG. 3)
Procedure: This effect may be measured by analyzing messenger RNA as well as the corresponding proteins.
Inhibition of these effects of angiotensin IV by candidate compounds is the foundation of the model. These cellular models encompass a screening approach as well as quantitative approaches. Angiotensin IV is used at a concentration of 100 nM, a concentration at which its binding to angiotensin II receptors is minimal.
(§1) The inventors used primary cultures and vascular muscle smooth cell lines of various species (man, rat, mouse); all cell lines in which angiotensin IV exerts stimulatory effects on the expression of angiotensinogen and angiotensin II AT1 receptors may be used. The confluent smooth muscle cells are placed in a serum-free culture medium (human vascular smooth muscle medium 2 from Promocell, or any other equivalent medium), in order to block their multiplication and to synchronize them. After 24 hours of habituation in this culture medium, the medium is replaced by fresh medium to which the various test substances are added according to the order adapted to the experimental protocol. Measurements are taken after 24 hours of treatment in the case of analyses of angiotensinogen and AT1 receptor expression. The antagonists are applied to the cells 30 minutes before angiotensin IV. The cells are exposed to 100 μU/ml of insulin to measure glucose uptake.
The results are the mean of pairs of measurements taken in human vascular smooth muscle cells from six patients.

[2] = system: human vascular smooth muscle cells; experiment: insulin-induced 3H-deoxyglucose uptake in human vascular smooth muscle cells; type: cell-based; settings: for amplitude of maximum effect / lower plateau: inhibition of insulin-induced deoxyglucose uptake, 4-parameter logistic regression (FIG. 4); for reversion of the inhibition by angiotensin IV of insulin-induced glucose uptake: antagonist pretreatment, cells from five patients (FIG. 5)
Text: This effect by angiotensin IV is not blocked by angiotensin II AT1 receptor antagonists or by angiotensin II AT2 receptor antagonists.
Angiotensin IV inhibits insulin-induced glucose uptake in vascular smooth muscle cells by a mechanism independent of angiotensin II AT1 and AT2 receptors.
as §1
The results are the mean of pairs of measurements taken in cells from six patients.

Row | Compound | effect on IRAP expression [1] | effect on expression of angiotensinogen and AT1 receptors ([1]; independent of AT1 receptors (FIG. 2)) | amplitude of maximum effect [2] | lower plateau [2] | inhibition of the angiotensinogen (and AT1 receptor) response to angiotensin IV [1] | reversion of the inhibition by angiotensin IV of insulin-induced glucose uptake [2]
1 | CC[C@H](C)[C@H](NC(=O)[C@H](Cc1ccc(O)cc1)NC(=O)[C@@H](N)C(C)C)C(=O)N[C@@H](Cc1cnc[nH]1)C(=O)N1CCC[C@H]1C(=O)N[C@@H](Cc1ccccc1)C(=O)O [angiotensin IV, Val-Tyr-Ile-His-Pro-Phe] | reduces | stimulating | 58.0%±2.3% | 41.9±1.4 |  | 
2 | CCC(C)[C@H](NC(=O)[C@H](Cc1ccc(O)cc1)NC(=O)C(CN)C(C)C)C(=O)N[C@@H](Cc1c[nH]cn1)C(=O)N1CCC[C@H]1C(=O)N[C@H](CC(=O)O)Cc1ccccc1 (stereo partly drawn) [compound AL-11, H-β^2hVal-Tyr-Ile-His-Pro-β^3hPhe-OH] (X1-Y[Ile(3ξ)]HP[β3hF]-OH) |  |  |  |  | inhibition; also recorded: much more powerful in preventing the response | reversion
3 | CC(C)[C@H](N)CN[C@@H](Cc1ccc(O)cc1)C(=O)N[C@H](CN[C@@H](Cc1c[nH]cn1)C(=O)N1CCC[C@H]1C(=O)N[C@@H](Cc1ccccc1)C(=O)O)C(C)C [divalinal, N-Val-(CH2—NH)-Tyr-Val(CH2—NH)-His-Pro-Phe] |  |  |  |  | inhibition; also recorded: weaker depressor of the maximum response | reversion
4 | Angiotensin II: angiotensin peptide hormone acting on AT1 and AT2 receptors, used for comparison (DRVYIHPF; Angiotensin-2; UniProt P01019 25-32, looked up) |  |  | 42.2%±6.4% | 56.3±4.5 |  | 
5 | LVV-hemorphin-7 |  |  |  |  | no activity | no activity
